Test results published in ChEMBL document CHEMBL1201862, “PubChem BioAssay data set” (2004).
The source made the active and inactive calls.

Tests used:
[1] = target: Neurotensin receptor type 1 (Homo sapiens, UniProt P30989); format: functional;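 further: Image-based confirmatory dose-response assay measuring agonist activity at NTR1; NTR1-expressing U2OS osteosarcoma cells imaged for beta-arrestin GFP spot formation; agonist potency where compounds increase beta-arrestin recruitment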
[2] = Luminescence Cell-Based Dose Retest to Confirm Inhibitors of Cancer Stem Cells. [Related pubchem assays (depositor defined):AID2717, AID2721]; format: functional; conditions: Homo sapiens
[3] = cells; format: functional, cell-based
[4] = target: T1, Estrogen receptor (Homo sapiens, UniProt P03372); test: ERα coactivator recruitment enhancers – biochemical, TR-FRET, ERα LBD, dose response (AID 737)
T1 sequence (P03372 whole entry): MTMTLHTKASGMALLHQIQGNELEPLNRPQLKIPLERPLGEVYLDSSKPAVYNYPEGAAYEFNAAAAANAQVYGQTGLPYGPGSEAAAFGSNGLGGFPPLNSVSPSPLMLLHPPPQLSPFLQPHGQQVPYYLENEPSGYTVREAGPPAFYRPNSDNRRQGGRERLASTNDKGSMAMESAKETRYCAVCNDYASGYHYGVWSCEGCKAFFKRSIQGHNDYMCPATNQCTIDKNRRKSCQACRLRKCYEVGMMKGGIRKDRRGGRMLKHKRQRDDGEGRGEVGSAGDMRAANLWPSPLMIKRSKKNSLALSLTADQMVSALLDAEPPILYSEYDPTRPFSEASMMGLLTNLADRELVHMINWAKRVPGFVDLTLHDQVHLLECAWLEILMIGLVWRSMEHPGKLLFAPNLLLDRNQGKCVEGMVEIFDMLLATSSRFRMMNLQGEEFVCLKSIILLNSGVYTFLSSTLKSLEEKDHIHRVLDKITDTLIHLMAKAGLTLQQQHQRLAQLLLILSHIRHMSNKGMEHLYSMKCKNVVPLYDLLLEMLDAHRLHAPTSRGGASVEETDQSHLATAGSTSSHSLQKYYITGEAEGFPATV

[5] = Luminescence Cell-Based Dose Response HTS to Identify Inhibitors of 5'UTR Stem-Loop Driven Prion Protein mRNA Translation in H4 Neuroglioblastoma Cells. [Related pubchem assays: 1827 (Project Summary), 1813 (Primary HTS)]; format: functional
[6] = alpha-synuclein stem-loop translation blockers – luminescence, H4 neuroglioblastoma cells, dose confirmation, confirmation (AID 2454); format: functional, cell-based;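 further: H4 neuroglioblastoma cells carrying an alpha-synuclein 5'UTR luciferase reporter; potency for inhibition of the luciferase signal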
[7] = luciferase reporter signal reduction – luminescence, H4-C neuroglioblastoma cells, dose response (AID 2458); format: functional, cell-based;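 further: H4 neuroglioblastoma cells stably carrying a luciferase reporter gene fusion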
[8] = alpha-synuclein stem-loop luciferase translation blockers – H4 neuroglioma cells, luminescence, confirmation (AID 1988); format: functional, cell-based
[9] = target: T2, Streptokinase A (Streptococcus pyogenes serotype M1, UniProt P10520); test: viability-normalized secreted streptokinase activity reduction – plasminogen activation absorbance, OD405, dose response (AID 1914); format: functional, Streptococcus pyogenes M1 GAS;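 further: secreted streptokinase activity via plasminogen activation per viability signal from cell pellet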
T2 sequence (P10520 whole entry): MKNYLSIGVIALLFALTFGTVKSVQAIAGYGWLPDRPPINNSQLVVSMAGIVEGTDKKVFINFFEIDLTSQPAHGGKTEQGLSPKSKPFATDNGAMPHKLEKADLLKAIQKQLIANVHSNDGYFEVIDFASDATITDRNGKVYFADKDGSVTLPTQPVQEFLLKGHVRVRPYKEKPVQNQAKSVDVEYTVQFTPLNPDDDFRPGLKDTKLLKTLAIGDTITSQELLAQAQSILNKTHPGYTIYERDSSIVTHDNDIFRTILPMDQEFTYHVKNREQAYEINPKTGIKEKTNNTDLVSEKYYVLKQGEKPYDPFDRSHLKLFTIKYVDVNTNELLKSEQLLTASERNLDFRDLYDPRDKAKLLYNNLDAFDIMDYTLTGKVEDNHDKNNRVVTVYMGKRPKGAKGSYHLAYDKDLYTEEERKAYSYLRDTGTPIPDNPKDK

[10] = HEK-293T viability loss after treatment – luminescence, T-cell screen hits, cytotoxicity control for TCR NF-kB inhibitor project, dose response (AID 489026); format: functional, cell-based;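 further: cells exposed to compound about 14 hours before the viability readout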
[11] = system: Streptococcus sp. 'group A'; test: Streptococcus pyogenes SK(-)GAS viability under kanamycin – luminescence, BacTiterGlo, confirmation, counter-screen for streptokinase expression inhibitor project, dose response (AID 1900); format: functional, organism-based
[12] = HPDE-C7 pancreatic duct cell viability loss – fluorescence, HTS (AID 430); format: functional, cell-based; conditions: Homo sapiens
[13] = system: Streptococcus; test: GAS UMAA2166 growth inhibition – luminescence, BacTiterGlo, counter-screen for streptokinase expression inhibitor project, dose response (AID 1915); format: functional, organism-based;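 further: potency for reduction of bacterial viability or growth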
[14] = viability loss of HPDE-C7K cells – cell-based, fluorescence, HTS, primary screen (AID 431); format: functional; conditions: Homo sapiens
[15] = luciferase reporter signal suppression in cells – H4 neuroglioma cells, luminescence, dose response (AID 1990); format: functional, cell-based
[16] = target: G-protein coupled receptor 35 (Homo sapiens, UniProt Q9HC97); test: inhibition of zaprinast-stimulated GPR35 beta-arrestin translocation – imaging, U2OS, beta-arrestin-GFP, zaprinast agonist, primary screen (AID 2058); format: functional;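 further: antagonist potency meaning inhibition of agonist-induced arrestin redistribution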
[17] = target: T3, Neuropeptide Y receptor type 2 (Homo sapiens, UniProt P49146); format: functional, cell-based;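 further: HEK293 cells expressing the receptor and a CNG channel; stimulus was NPY near EC95 followed by isoproterenol to raise cAMP; antagonist potency measured as restoring cAMP signal that NPY suppresses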
T3 sequence (P49146 whole entry): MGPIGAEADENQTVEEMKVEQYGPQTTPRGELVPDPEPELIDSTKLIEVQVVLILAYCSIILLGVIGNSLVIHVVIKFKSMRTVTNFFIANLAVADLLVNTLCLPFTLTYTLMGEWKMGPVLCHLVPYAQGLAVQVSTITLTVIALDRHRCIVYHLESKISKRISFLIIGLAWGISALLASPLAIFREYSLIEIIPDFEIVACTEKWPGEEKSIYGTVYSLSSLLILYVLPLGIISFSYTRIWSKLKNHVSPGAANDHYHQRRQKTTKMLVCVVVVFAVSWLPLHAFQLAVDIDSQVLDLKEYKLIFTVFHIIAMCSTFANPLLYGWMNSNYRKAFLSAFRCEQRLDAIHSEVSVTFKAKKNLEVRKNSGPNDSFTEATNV

[18] = target: T4, Neuropeptide Y receptor type 1 (Homo sapiens, UniProt P25929); format: functional;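 further: HEK293 cells with a CNG channel challenged with NPY then isoproterenol; potency as antagonist that reverses NPY suppression of cAMP signal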
T4 sequence (P25929 whole entry): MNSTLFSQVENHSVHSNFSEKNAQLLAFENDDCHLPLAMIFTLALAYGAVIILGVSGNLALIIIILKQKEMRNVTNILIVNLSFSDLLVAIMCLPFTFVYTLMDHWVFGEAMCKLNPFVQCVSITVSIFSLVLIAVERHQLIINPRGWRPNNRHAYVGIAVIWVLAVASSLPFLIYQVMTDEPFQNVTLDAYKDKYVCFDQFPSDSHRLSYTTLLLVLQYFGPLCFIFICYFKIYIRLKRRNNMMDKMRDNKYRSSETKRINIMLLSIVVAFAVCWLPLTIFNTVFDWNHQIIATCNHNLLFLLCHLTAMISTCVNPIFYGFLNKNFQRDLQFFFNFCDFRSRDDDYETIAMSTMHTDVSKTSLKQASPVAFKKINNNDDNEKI

[19] = target: Melanin-concentrating hormone receptor 1 (Homo sapiens, UniProt Q99705); test: Late-stage fluorescence-based counterscreen for antagonists of the G-protein coupled receptor 7 (GPR7): cell-based dose response assay to identify antagonists of the melanin-concentrating hormone receptor 1 (MCHR1). [Related pubchem assays (depositor defined):AID1861, AID1880, AID1952, AID2148, AID2251, AID2257, AID485339]; format: functional;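 further: stimulated with 30 nM MCH peptide agonist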
[20] = target: T5, Small ubiquitin-related modifier 1 (Homo sapiens, UniProt P63165); test: SUMO1 protein interaction blockers, potency – biochemical, fluorescence polarization, uHTS hits, dose response (AID 624382); format: functional; conditions: read-out: IC50_Mean
[21] = target: T6, SUMO-activating enzyme (Homo sapiens, UniProt Q9UBT2); test: blockers of SAE1/SAE2–UBC9 SUMO transfer – biochemical, HTRF, uHTS, primary screen (AID 2006); format: protein-complex assay
[22] = target: T6, SUMO-activating enzyme; test: blockers of UBC9-mediated SUMO conjugation – biochemical, AlphaScreen, SUMOylation inhibitor project, confirmation (AID 2018); format: functional
[23] = target: T5, Small ubiquitin-related modifier 1; test: SUMO1 protein-protein binding blockers, potency – biochemical, FRET, dose response (AID 624383); format: functional; conditions: read-out: IC50_Mean
[24] = target: 26S proteasome non-ATPase regulatory subunit 14 (Homo sapiens, UniProt O00487); test: inhibition of proteasome subunit RPN11 – biochemical, fluorescence polarization, uHTS hits, confirmation (AID 602368); format: functional
[25] = target: Prothrombin (Bos taurus, UniProt P00735); test: thrombin protease inhibitors – biochemical, fluorescence polarization, uHTS hits, dose response (AID 602369); format: functional
[26] = target: 72 kDa type IV collagenase (Homo sapiens, UniProt P08253); test: Dose Response validation of uHTS RPN11 inhibitor hits using a MMP-2 Fluorescence assay.; format: functional
[27] = target: Cytochrome P450 3A4 (Homo sapiens, UniProt P08684); conditions: Potency;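 further: confirmatory qHTS run detecting inhibitors and substrates of CYP3A4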
Cytochrome P450 3A4, sequence (P08684 whole entry): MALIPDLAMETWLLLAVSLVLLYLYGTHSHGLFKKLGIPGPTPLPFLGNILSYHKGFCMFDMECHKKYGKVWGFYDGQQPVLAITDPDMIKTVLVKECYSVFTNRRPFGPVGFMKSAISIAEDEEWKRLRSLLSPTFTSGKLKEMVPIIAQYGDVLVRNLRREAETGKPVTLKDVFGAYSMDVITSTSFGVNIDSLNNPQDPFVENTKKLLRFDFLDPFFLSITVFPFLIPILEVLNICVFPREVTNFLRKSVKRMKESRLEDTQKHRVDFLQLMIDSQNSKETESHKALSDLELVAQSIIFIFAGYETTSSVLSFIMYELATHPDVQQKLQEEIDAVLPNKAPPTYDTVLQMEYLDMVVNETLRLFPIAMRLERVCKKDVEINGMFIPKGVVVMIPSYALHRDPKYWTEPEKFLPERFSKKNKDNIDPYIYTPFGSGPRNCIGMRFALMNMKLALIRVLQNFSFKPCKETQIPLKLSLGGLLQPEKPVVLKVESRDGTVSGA

T6 sequence (Q9UBE0 whole entry): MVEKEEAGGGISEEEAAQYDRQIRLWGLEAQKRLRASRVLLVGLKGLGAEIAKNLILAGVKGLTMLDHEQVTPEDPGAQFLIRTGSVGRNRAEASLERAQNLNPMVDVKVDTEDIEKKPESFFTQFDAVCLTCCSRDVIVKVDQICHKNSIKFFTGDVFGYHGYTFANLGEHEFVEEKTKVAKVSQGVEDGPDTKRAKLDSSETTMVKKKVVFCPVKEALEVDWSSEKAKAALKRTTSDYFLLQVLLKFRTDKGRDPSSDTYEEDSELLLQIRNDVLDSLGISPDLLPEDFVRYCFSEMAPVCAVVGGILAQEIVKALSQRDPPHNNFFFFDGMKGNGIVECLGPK
T6 sequence (Q9UBT2 whole entry): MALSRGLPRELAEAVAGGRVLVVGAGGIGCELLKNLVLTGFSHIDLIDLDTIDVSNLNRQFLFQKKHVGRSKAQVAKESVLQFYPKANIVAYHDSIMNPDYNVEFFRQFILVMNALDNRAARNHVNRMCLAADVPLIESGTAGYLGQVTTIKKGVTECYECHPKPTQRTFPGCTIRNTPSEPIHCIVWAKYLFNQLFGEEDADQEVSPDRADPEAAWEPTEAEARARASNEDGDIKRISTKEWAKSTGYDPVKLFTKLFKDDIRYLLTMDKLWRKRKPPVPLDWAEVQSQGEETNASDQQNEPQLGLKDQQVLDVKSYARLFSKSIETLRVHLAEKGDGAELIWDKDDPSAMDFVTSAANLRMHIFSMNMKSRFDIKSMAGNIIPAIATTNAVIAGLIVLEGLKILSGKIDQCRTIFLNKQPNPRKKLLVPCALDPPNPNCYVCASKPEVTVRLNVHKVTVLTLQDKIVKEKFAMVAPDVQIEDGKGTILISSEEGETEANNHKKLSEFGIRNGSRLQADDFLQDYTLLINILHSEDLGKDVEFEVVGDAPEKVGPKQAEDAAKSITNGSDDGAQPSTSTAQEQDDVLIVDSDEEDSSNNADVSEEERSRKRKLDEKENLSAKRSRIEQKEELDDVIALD
T5 sequence (P63165 whole entry): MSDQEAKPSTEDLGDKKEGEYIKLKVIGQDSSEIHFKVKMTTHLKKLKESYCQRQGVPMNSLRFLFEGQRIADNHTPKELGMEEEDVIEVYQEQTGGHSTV
Neurotensin receptor type 1, sequence (P30989 whole entry): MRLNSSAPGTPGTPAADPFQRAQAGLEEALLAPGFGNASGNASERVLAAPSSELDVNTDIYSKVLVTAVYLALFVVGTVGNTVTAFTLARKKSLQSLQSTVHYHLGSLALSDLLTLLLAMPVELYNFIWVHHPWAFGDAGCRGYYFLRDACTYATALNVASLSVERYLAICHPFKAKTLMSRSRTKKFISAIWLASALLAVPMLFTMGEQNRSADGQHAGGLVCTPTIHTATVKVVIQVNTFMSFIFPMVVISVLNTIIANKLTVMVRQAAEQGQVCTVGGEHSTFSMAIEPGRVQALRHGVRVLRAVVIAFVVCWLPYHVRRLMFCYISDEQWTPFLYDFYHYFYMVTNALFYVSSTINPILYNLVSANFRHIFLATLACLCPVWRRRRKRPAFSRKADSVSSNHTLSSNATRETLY
72 kDa type IV collagenase, sequence (P08253 whole entry): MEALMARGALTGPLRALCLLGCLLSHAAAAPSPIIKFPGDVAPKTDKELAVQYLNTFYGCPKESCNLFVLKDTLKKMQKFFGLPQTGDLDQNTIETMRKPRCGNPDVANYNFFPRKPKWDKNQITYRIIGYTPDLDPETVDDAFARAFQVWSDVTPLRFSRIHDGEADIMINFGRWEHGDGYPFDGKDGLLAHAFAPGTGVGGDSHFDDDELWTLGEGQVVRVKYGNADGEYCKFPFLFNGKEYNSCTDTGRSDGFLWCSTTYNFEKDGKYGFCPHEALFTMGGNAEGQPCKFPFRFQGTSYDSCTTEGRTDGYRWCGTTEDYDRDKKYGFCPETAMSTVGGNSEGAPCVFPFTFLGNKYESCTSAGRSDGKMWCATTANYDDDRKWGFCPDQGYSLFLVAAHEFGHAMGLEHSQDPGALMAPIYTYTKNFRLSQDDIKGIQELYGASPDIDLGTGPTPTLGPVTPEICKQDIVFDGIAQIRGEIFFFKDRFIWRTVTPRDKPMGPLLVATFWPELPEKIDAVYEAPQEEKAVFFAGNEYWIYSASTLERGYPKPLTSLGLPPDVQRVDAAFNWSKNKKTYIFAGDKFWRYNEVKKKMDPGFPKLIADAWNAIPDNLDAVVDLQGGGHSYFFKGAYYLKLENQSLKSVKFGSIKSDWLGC
Melanin-concentrating hormone receptor 1, sequence (Q99705 whole entry): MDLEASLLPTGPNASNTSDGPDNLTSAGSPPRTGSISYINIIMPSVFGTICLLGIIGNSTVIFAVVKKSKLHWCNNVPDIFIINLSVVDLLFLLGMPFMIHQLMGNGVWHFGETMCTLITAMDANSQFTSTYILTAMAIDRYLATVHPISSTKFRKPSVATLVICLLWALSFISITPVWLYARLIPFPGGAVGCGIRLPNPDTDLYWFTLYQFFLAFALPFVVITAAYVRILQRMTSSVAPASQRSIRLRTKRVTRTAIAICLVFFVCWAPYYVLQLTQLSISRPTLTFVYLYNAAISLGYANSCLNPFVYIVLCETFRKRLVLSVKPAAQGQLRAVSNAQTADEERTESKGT
G-protein coupled receptor 35, sequence (Q9HC97 whole entry): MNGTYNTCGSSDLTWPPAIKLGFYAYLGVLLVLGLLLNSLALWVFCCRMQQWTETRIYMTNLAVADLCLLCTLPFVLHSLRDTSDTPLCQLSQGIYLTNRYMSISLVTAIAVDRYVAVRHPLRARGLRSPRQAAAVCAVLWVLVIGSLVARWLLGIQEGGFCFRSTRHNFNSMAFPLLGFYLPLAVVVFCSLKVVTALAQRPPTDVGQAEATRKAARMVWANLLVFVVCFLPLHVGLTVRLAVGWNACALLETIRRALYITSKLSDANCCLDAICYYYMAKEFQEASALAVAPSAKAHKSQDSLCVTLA
26S proteasome non-ATPase regulatory subunit 14, sequence (O00487 whole entry): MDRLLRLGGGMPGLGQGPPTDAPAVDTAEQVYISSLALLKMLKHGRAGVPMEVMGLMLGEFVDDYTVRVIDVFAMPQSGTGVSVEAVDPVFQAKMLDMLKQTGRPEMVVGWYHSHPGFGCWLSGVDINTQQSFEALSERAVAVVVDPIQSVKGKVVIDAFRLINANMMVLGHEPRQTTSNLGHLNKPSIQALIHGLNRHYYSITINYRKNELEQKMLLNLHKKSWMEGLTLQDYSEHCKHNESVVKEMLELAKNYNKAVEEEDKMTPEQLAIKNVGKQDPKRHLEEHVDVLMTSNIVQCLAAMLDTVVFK

## CCCCNc1c(-c2cccc(Sc3ccc(OC)cc3)c2)nc2ccccn12
[1]
  EC50: 27.5 µM (inactive)
[2]
  AC50: 5.22 µM (active)

## CCN(CC)c1ccc(-c2nn3c(-c4ccccc4OC)nnc3s2)cc1
[3]
  EC50: 0.346 µM (active)
[4]
  EC50: 18.2 µM (active)
[5]
  EC50: 8.94 µM (active)
[6]
  EC50: 0.17 µM (active)
[7]
  EC50: 0.214 µM (active)
[8]
  EC50: < 0.1 µM (active)
[9]
  EC50: > 150 µM (not active)
[10]
  IC50: 49.9 µM (inactive)
[11]
  EC50: 6.86 µM (active)
[12]
  EC50: > 20 µM (not active)
[13]
  EC50: 8.67 µM (active)
[14]
  EC50: > 20 µM (not active)
[15]
  EC50: < 0.1 µM (active)

## Cc1cccc(NC(=O)c2nc[nH]c2C(=O)N[C@@H](Cc2ccccc2)C(=O)OC(C)(C)C)c1
[9]
  EC50: > 150 µM (not active)
[1]
  EC50: 17.9 µM (active)

## CCOC(=O)c1c(-c2ccccc2)csc1NC(=O)/C(C#N)=C/c1ccc(O)c(OC)c1
[16]
  IC50: 2.75 µM (active)

## COc1ccc(-c2[nH]nc3c2C(c2ccc(OC)c(OC)c2)N(c2ccccc2)C3=O)cc1 (stereo not given)
[17]
  IC50: 4.36 µM (active)
[18]
  IC50: 7.8 µM (active)

## COc1ccc(Oc2c(Cl)cnn(-c3cccc4c3CCCC4)c2=O)cc1
[19]
  IC50: 4.1 µM (active)

## Sc1nnc(-c2cc(-c3ccccc3)[nH]n2)n1/N=C/c1cccc(Cl)c1
[20]
  IC50: > 66.6 µM (inactive)
[21]
  IC50: 11.1 µM (active)
[22]
  IC50: 3.34 µM (active)
[23]
  IC50: 5.8 µM (active)
[9]
  EC50: > 150 µM (not active)
[11]
  EC50: 16.7 µM (active)
[24]
  IC50: 11.4 µM (active)
[25]
  IC50: 33.8 µM (active)
[13]
  EC50: 84.4 µM (active)
[26]
  IC50: > 100 µM (inactive)

## COC(=O)c1cc2occc2n1Cc1nc(-c2ccccc2Cl)oc1C
[17]
  IC50: 8.2 µM (active)
[18]
  IC50: 7.7 µM (active)

## CC(=O)OC1CC2C(C)(C)C=CC(=O)[C@@]2(C)C2CC[C@@]3(C)C(c4ccoc4)OC(=O)C4OC43[C@]12C (stereo not given in full)
[27]
  AC50: 15.8 µM (inconclusive)

## CCCn1c(-c2ccc(F)cc2)nc2c(NCC3CCN(C)CC3)nc(C)nc21
[27]
  AC50: 15.8 µM (inconclusive)
